Measured values reported in ChEMBL document CHEMBL3885881, “DrugMatrix”.

Species: Rattus norvegicus
Test: DrugMatrix - Regimen: Daily Repeat
Format: toxicity, organism-based, Sprague-Dawley
Parameters: regimen Daily Repeat, gender Male, age 6-8 weeks
Settings: in vivo, po, route oral GAVAGE, […]; for ABSOLUTE BASOPHIL / ABSOLUTE EOSINOPHIL / ABSOLUTE LYMPHOCYTE / ABSOLUTE MONOCYTE / ABSOLUTE SEGMENTED NEUTROPHIL / BASOPHIL / EOSINOPHIL / ERYTHROCYTE COUNT / HEMATOCRIT / HEMOGLOBIN / LEUKOCYTE COUNT / LYMPHOCYTE / MEAN CORPUSCULAR HEMOGLOBIN / MEAN CORPUSCULAR HEMOGLOBIN CONCENTRATION / MEAN CORPUSCULAR VOLUME / MONOCYTE / NEUTROPHIL / NUCLEATED RED BLOOD CELLS / PLATELET COUNT: tissue Blood; for ALANINE AMINOTRANSFERASE / ALBUMIN / ALKALINE PHOSPHATASE / ASPARTATE AMINOTRANSFERASE / BLOOD UREA NITROGEN / CARBON DIOXIDE / CHLORIDE / CHOLESTEROL / CREATINE PHOSPHOKINASE / CREATININE / GLUCOSE / LACTATE DEHYDROGENASE / LIPASE / PHOSPHORUS / POTASSIUM / SODIUM / TOTAL BILIRUBIN / TOTAL PROTEIN / URIC ACID: tissue Plasma
[1] = 0 mg/kg, 72 h, dose level Control, time 3 day
[2] = 0 mg/kg, dose level Control, time 7 day
[3] = 130 mg/kg, 72 h, dose level Low, time 3 day

SMILES: CCOC(=O)C(C)(C)Oc1ccc(Cl)cc1 [CLOFIBRATE]
- ABSOLUTE BASOPHIL [1]: 0 CELLS/uL
- ABSOLUTE EOSINOPHIL [1]: 37.33 CELLS/uL
- ABSOLUTE LYMPHOCYTE [1]: 6295.33 CELLS/uL
- ABSOLUTE MONOCYTE [1]: 122.17 CELLS/uL
- ABSOLUTE SEGMENTED NEUTROPHIL [1]: 861.83 CELLS/uL
- BASOPHIL [1]: 0%
- EOSINOPHIL [1]: 0.5%
- ERYTHROCYTE COUNT [1]: 5.2 x10E6/uL
- HEMATOCRIT [1]: 32.58%
- HEMOGLOBIN [1]: 12.95 G/DL
- LEUKOCYTE COUNT [1]: 7.32 x10E3/uL
- LYMPHOCYTE [1]: 86%
- MEAN CORPUSCULAR HEMOGLOBIN [1]: 24.93 pg
- MEAN CORPUSCULAR HEMOGLOBIN CONCENTRATION [1]: 39.77 G/DL
- MEAN CORPUSCULAR VOLUME [1]: 62.65 fL
- MONOCYTE [1]: 1.67%
- NEUTROPHIL [1]: 11.83%
- NUCLEATED RED BLOOD CELLS [1]: 0 /100WBC
- PLATELET COUNT [1]: 1029 x10E3/uL
- ALANINE AMINOTRANSFERASE [1]: 63.67 u/L
- ALBUMIN [1]: 4.12 G/DL
- ALKALINE PHOSPHATASE [1]: 329.83 u/L
- ASPARTATE AMINOTRANSFERASE [1]: 77.67 u/L
- BLOOD UREA NITROGEN [1]: 18 mg/dL
- CARBON DIOXIDE [1]: 29.67 mmol/L
- CHLORIDE [1]: 102.67 MEQ/L
- CHOLESTEROL [1]: 64.5 mg/dL
- CREATINE PHOSPHOKINASE [1]: 178.67 u/L
- CREATININE [1]: 0.18 mg/dL
- GLUCOSE [1]: 163.83 mg/dL
- LACTATE DEHYDROGENASE [1]: 75.83 u/L
- LIPASE [1]: 10 u/L
- PHOSPHORUS [1]: 8.28 mg/dL
- POTASSIUM [1]: 4.79 MEQ/L
- SODIUM [1]: 142.22 MEQ/L
- TOTAL BILIRUBIN [1]: 0.22 mg/dL
- TOTAL PROTEIN [1]: 5.78 G/DL
- URIC ACID [1]: 0.87 mg/dL
- ABSOLUTE BASOPHIL [2]: 0 CELLS/uL
- ABSOLUTE EOSINOPHIL [2]: 19 CELLS/uL
- ABSOLUTE LYMPHOCYTE [2]: 7803.5 CELLS/uL
- ABSOLUTE MONOCYTE [2]: 117.83 CELLS/uL
- ABSOLUTE SEGMENTED NEUTROPHIL [2]: 1093 CELLS/uL
- BASOPHIL [2]: 0%
- EOSINOPHIL [2]: 0.17%
- ERYTHROCYTE COUNT [2]: 5.84 x10E6/uL
- HEMATOCRIT [2]: 35.75%
- HEMOGLOBIN [2]: 13.87 G/DL
- LEUKOCYTE COUNT [2]: 9.03 x10E3/uL
- LYMPHOCYTE [2]: 87.17%
- MEAN CORPUSCULAR HEMOGLOBIN [2]: 23.78 pg
- MEAN CORPUSCULAR HEMOGLOBIN CONCENTRATION [2]: 38.8 G/DL
- MEAN CORPUSCULAR VOLUME [2]: 61.25 fL
- MONOCYTE [2]: 1.17%
- NEUTROPHIL [2]: 11.5%
- NUCLEATED RED BLOOD CELLS [2]: 0 /100WBC
- PLATELET COUNT [2]: 1098.67 x10E3/uL
- ALANINE AMINOTRANSFERASE [2]: 66 u/L
- ALBUMIN [2]: 4.3 G/DL
- ALKALINE PHOSPHATASE [2]: 291.83 u/L
- ASPARTATE AMINOTRANSFERASE [2]: 80.5 u/L
- BLOOD UREA NITROGEN [2]: 15.67 mg/dL
- CARBON DIOXIDE [2]: 30 mmol/L
- CHLORIDE [2]: 101.67 MEQ/L
- CHOLESTEROL [2]: 69.67 mg/dL
- CREATINE PHOSPHOKINASE [2]: 363.33 u/L
- CREATININE [2]: 0.25 mg/dL
- GLUCOSE [2]: 146.5 mg/dL
- LACTATE DEHYDROGENASE [2]: 219.67 u/L
- LIPASE [2]: 11.33 u/L
- PHOSPHORUS [2]: 10.08 mg/dL
- POTASSIUM [2]: 5.22 MEQ/L
- SODIUM [2]: 144.67 MEQ/L
- TOTAL BILIRUBIN [2]: 0.12 mg/dL
- TOTAL PROTEIN [2]: 6.33 G/DL
- URIC ACID [2]: 0.75 mg/dL
- ABSOLUTE BASOPHIL [3]: 0 CELLS/uL
- ABSOLUTE EOSINOPHIL [3]: 0 CELLS/uL
- ABSOLUTE LYMPHOCYTE [3]: 6441.67 CELLS/uL
- ABSOLUTE MONOCYTE [3]: 98 CELLS/uL
- ABSOLUTE SEGMENTED NEUTROPHIL [3]: 743.67 CELLS/uL
- BASOPHIL [3]: 0%
- EOSINOPHIL [3]: 0%
- ERYTHROCYTE COUNT [3]: 5.19 x10E6/uL
- HEMATOCRIT [3]: 32.77%
- HEMOGLOBIN [3]: 13.27 G/DL
- LEUKOCYTE COUNT [3]: 7.28 x10E3/uL
- LYMPHOCYTE [3]: 88.83%
- MEAN CORPUSCULAR HEMOGLOBIN [3]: 25.65 pg
- MEAN CORPUSCULAR HEMOGLOBIN CONCENTRATION [3]: 40.57 G/DL
- MEAN CORPUSCULAR VOLUME [3]: 63.17 fL
- MONOCYTE [3]: 1.33%
- NEUTROPHIL [3]: 9.83%
- NUCLEATED RED BLOOD CELLS [3]: 0 /100WBC
- PLATELET COUNT [3]: 1091.67 x10E3/uL
- ALANINE AMINOTRANSFERASE [3]: 69.83 u/L
- ALBUMIN [3]: 4.22 G/DL
- ALKALINE PHOSPHATASE [3]: 373.67 u/L
- ASPARTATE AMINOTRANSFERASE [3]: 86 u/L
- BLOOD UREA NITROGEN [3]: 16.5 mg/dL
- CARBON DIOXIDE [3]: 30.17 mmol/L
- CHLORIDE [3]: 101.83 MEQ/L
- CHOLESTEROL [3]: 48.17 mg/dL
- CREATINE PHOSPHOKINASE [3]: 463.67 u/L
- CREATININE [3]: 0.14 mg/dL
- GLUCOSE [3]: 170.83 mg/dL
- LACTATE DEHYDROGENASE [3]: 85.33 u/L
- LIPASE [3]: 9.67 u/L
- PHOSPHORUS [3]: 8.43 mg/dL
- POTASSIUM [3]: 5.04 MEQ/L
- SODIUM [3]: 142.75 MEQ/L
- TOTAL BILIRUBIN [3]: 0.18 mg/dL
- TOTAL PROTEIN [3]: 5.87 G/DL
- URIC ACID [3]: 0.93 mg/dL
